Patent EP4458916A1, “PHOTOCATALYTICALLY ACTIVE COATING COMPOSITION, METHOD FOR THE PRODUCTION THEREOF AND USE THEREOF” (priority 2023, dated 2024)
Where two headings read alike, the source gives them in different places.

Experiments:
Assay type in all cases: cell-based
[1] = tested on: Bakterien; test: Durability: bacteria test (ISO 22196) after immersion in Incidin Plus (10% in water) or isopropanol (70% in water); settings: 4 h, Rezeptur 2 (Borsäure) on Melamin, 2 mM
Source text: (§1) Die Bestimmung der antimikrobiellen Aktivität erfolgte nach einer modifizierten Version der ISO 22196:2011-08 ("Messung von antibakterieller Aktivität auf Kunststoff- und anderen porenfreien Oberflächen", Ausgabedatum: 2011-08).
(§2) Bei der Testdurchführung wurde ein dünner Flüssigkeitsfilm, in dem die Bakterien enthalten sind (1,25 x 10^4 /cm2), direkt auf die Probekörper (2,5 cm x 2,5 cm) aufgebracht. Direkt nach Beimpfung wurden von der Nullprobe die Bakterien von den Probekörperoberflächen mittels Ultraschall und Vortexen abgelöst und die Keimzahl (KBE (engl. CFU), Kolonie-bildende Einheit) bestimmt (t0-Wert). Ein weiterer Satz Nullproben und antimikrobiell ausgestatteter Proben wurden mit Bakterien im Flüssigkeitsfilm bei Raumtemperatur inkubiert. Nach 4 h wurden überlebende Bakterien von den Probekörperoberflächen mittels Ultraschall und Vortexen abgelöst und die Keimzahl bestimmt (t4-Wert).
(§3) Im Unterschied zu der in der ISO 22196:2011-08 beschriebenen Methode wurde das Inokulum nicht mit einer Folie abgedeckt und die Inkubationszeit von 24 auf 4 Stunden reduziert. Weiterhin wurden die Platten der Proben 3 und 4 mit Licht mit einer Intensität von 300 µW/cm2 belichtet.
Um die Haltbarkeit der Beschichtung bzw. das Auswaschen des Farbstoffs gegen gängige Reinigungs- und Desinfektionsmitteln, wurden damit Immersionstests in Incidin Plus (Ecolab GmbH, 10% in Wasser, Farbstoff S-25a) und Isopropanol (70% in Wasser) durchgeführt.
Der Bakterientest wurde in Anlehnung an ISO 22196 nach oben beschriebener Methode durchgeführt. Die Ergebnisse sind in den Tabellen 59 und 60 zusammengefasst. Tabelle 59: Mikrobiologische Wirksamkeit (Iog10 Reduktion) nach X h Immersion in Incidin Plus (10% in Wasser).

[2] = tested on: S. enterica; test: Bacteria test following modified ISO 22196, photodynamic effect of different photocatalysts in the SolGel coating on S. enterica; settings: Rezeptur 4 nach Beispiel 5 on Melamin, 4 h
Source text: as §1, §2, §3
(§4) Der Bakterientest wurde in Anlehnung an ISO 22196 nach oben beschriebener Methode durchgeführt. Die Ergebnisse sind Tabelle 57a bis 57b dargestellt. Tabelle 57a: Photodynamische Wirkung verschiedener Katalysatoren in der SolGel Beschichtung gegen S.aureus

[3] = tested on: I. monocytoqenes; test: Bacteria test following modified ISO 22196, photodynamic effect of different photocatalysts in the SolGel coating on I. monocytoqenes; settings: Rezeptur 4 nach Beispiel 5 on Melamin; 4 h, dark
Source text: as §1, §2, §3, §4

Work on `CC(C)(O)c1cc[n+](CC2=Cc3cccc4cccc(c34)C2=O)cc1` [S-25a] yielded a log reduction at 2000 µM ([1]; Immersion in Incidin Plus (10% in Wasser) 0 h, read-out: Log10 Reduktion nach 0 h, Probe) of 3.7, a log reduction at 2000 µM ([1]; Immersion in Incidin Plus (10% in Wasser) 1 h, dark, read-out: Log10 Reduktion nach 1 h, Dunkelkontrolle) of 0.8 and a log reduction at 2000 µM ([1]; Immersion in Incidin Plus (10% in Wasser) 1 h, read-out: Log10 Reduktion nach 1 h, Probe) of 2.6. The log reduction at 2000 µM ([1]; Immersion in Incidin Plus (10% in Wasser) 2 h, read-out: Log10 Reduktion nach 2 h, Probe) was 2.4, the log reduction at 2000 µM ([1]; Immersion in Incidin Plus (10% in Wasser) 3 h, read-out: Log10 Reduktion nach 3 h, Probe) was 1.4 and the “S. enterica Log10 Reduktion Probe” value ([2]; 300 µW/cm2) was 2,5±0,4. For the same compound, the “S. enterica Log10 Reduktion Dunkelkontrolle” value ([2]; dark) was 0,0±0,1 and the “I. monocytoqenes Log10 Reduktion Dunkelkontrolle” value [3] was 0,0±0,1.
